Patent US20050239656A1, “Pyridine compounds or salts thereof and herbicides containing the same” (priority 2002, published 2005)

Assays:
[1] = system: barnyardgrass; assay: Test Example 1: foliage treatment, upland pot test; assay type: in vivo, Echinochloa crus-galli L.; conditions: active ingredient 500 g/ha, observed 18th to 23rd day, 0 = non-treated, 100 = complete kill
Summary of the method: (§1)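 Crops and weeds were sown in upland soil pots and sprayed post-emergence at set leaf stages (soybean 0.1–0.4, wheat 1.3–2.4, rice 1.2–2.6, barnyardgrass 1.3–2.8). Formulated compound was applied in 500 L/ha water with 0.1% spreader. Growth control (0–100%) was rated visually 18–23 days later.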

[2] = system: crabgrass; assay: Test Example 1: foliage treatment, upland pot test; assay type: in vivo, Digitaria sanguinalis L.; conditions: active ingredient 500 g/ha, observed 18th to 23rd day, 0 = non-treated, 100 = complete kill
[3] = system: green foxtail; assay: Test Example 1: foliage treatment, upland pot test; assay type: in vivo, Setaria viridis L.; conditions: active ingredient 500 g/ha, observed 18th to 23rd day, 0 = non-treated, 100 = complete kill
[4] = system: redroot pigweed; assay: Test Example 1: foliage treatment, upland pot test; assay type: in vivo, Amaranthus retroflexus L.; conditions: active ingredient 500 g/ha, observed 18th to 23rd day, 0 = non-treated, 100 = complete kill
[5] = system: prickly sida; assay: Test Example 1: foliage treatment, upland pot test; assay type: in vivo, Sida spinosa L.; conditions: active ingredient 500 g/ha, observed 18th to 23rd day, 0 = non-treated, 100 = complete kill
[6] = system: velvetleaf; assay: Test Example 1: foliage treatment, upland pot test; assay type: in vivo, Abutilon theophrasti MEDIC.; conditions: active ingredient 500 g/ha, observed 18th to 23rd day, 0 = non-treated, 100 = complete kill
[7] = system: rice; assay: Test Example 1: foliage treatment, upland pot test; assay type: in vivo, Oryza sativa L.; conditions: crop, active ingredient 500 g/ha, observed 18th to 23rd day, 0 = non-treated, 100 = complete kill
Summary of the method: as §1

[8] = system: corn; assay: Test Example 1: foliage treatment, upland pot test; assay type: in vivo, Zea mays L.; conditions: crop, active ingredient 500 g/ha, observed 18th to 23rd day, 0 = non-treated, 100 = complete kill
Summary of the method: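 In this upland pot foliage test, corn plants at 2.1 to 3.2 leaf stages were sprayed by a small size sprayer. The spray was a conventionally formulated wettable powder or emulsifiable concentrate weighed to a set active ingredient amount, diluted in water at 500 L/ha, plus 0.1% (v/v) agricultural spreader. Visual assessment on days 18 to 23 gave growth controlling degree (%), where 0 equals untreated and 100 means complete kill.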

[9] = system: soybean; assay: Test Example 1: foliage treatment, upland pot test; assay type: in vivo, Glycine max Merr.; conditions: crop, active ingredient 500 g/ha, observed 18th to 23rd day, 0 = non-treated, 100 = complete kill
Summary of the method: as §1

[10] = system: barnyardgrass; assay: Test Example 2: soil surface treatment, upland pot test; assay type: in vivo, Echinochloa crus-galli L.; conditions: active ingredient 500 g/ha, observed 20th to 28th day
Summary of the method: (§2)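 Sowing, then next-day soil-surface spray of formulated test compound (fixed a.i. amount, 1,500 L/ha spray volume); visual evaluation of growth inhibition, 0–100%, three to four weeks (days 20–28) after application.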

[11] = system: crabgrass; assay: as above; assay type: in vivo, Digitaria sanguinalis L.; conditions: active ingredient 500 g/ha, observed 20th to 28th day
Summary of the method: as §2

[12] = system: green foxtail; assay: as above; assay type: in vivo, Setaria viridis L.; conditions: active ingredient 500 g/ha, observed 20th to 28th day
Summary of the method: as §2

[13] = system: redroot pigweed; assay: as above; assay type: in vivo, Amaranthus retroflexus L.; conditions: active ingredient 500 g/ha, observed 20th to 28th day
Summary of the method: as §2

[14] = system: prickly sida; assay: as above; assay type: in vivo, Sida spinosa L.; conditions: active ingredient 500 g/ha, observed 20th to 28th day
Summary of the method: as §2

[15] = system: velvetleaf; assay: as above; assay type: in vivo, Abutilon theophrasti MEDIC.; conditions: active ingredient 500 g/ha, observed 20th to 28th day
Summary of the method: as §2

[16] = system: rice; assay: as above; assay type: in vivo, Oryza sativa L.; conditions: active ingredient 500 g/ha, observed 20th to 28th day
Summary of the method: as §2

[17] = system: corn; assay: as above; assay type: in vivo, Zea mays L.; conditions: active ingredient 500 g/ha, observed 20th to 28th day
Summary of the method: as §2

[18] = system: soybean; assay: as above; assay type: in vivo, Glycine max Merr.; conditions: active ingredient 500 g/ha, observed 20th to 28th day
Summary of the method: as §2

[19] = system: barnyardgrass; assay: Test Example 3: paddy pot test, application under submerged conditions; assay type: in vivo, Echinochloa crus-galli L.; conditions: submerged application at 0.5 leaf stage, visually observed 14 days after application, 0 = non-treated, 100 = complete kill
Summary of the method: (§3)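 Visual growth-control rating (0 = untreated, 100 = complete kill) 14 days after treatment. The formulated compound, as a diluted wettable powder or emulsifiable concentrate, went into 3–4 cm flood water at a predetermined active-ingredient dose once the weeds reached 0.5 leaf stage (wapato: primary leaf stage).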

[20] = system: japanese bulrush; assay: as above; assay type: in vivo, Scirpus juncoides; conditions: submerged application at 0.5 leaf stage, visually observed 14 days after application, 0 = non-treated, 100 = complete kill
Summary of the method: as §3

[21] = system: japanese ribbon wapato; assay: as above; assay type: in vivo, Sagittaria pygniaea; conditions: submerged application at primary leaf stage, visually observed 14 days after application, 0 = non-treated, 100 = complete kill
Summary of the method: as §3

[22] = system: rice (var. Nihonbare); assay: Test Example 3: paddy pot test, transplanted rice; assay type: in vivo, Oryza sativa L.; conditions: applied 4th day after transplantation, visually observed 21st day after application, 0 = non-treated, 100 = complete kill
Summary of the method: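 Rice (var. Nihonbare) at 2 leaf stage transplanted 3 cm deep into puddled paddy soil under 3–4 cm flooding; on day 4 after transplanting, diluted wettable powder or emulsifiable concentrate applied by pipette under submerged conditions at a set active-ingredient dose. Growth scored visually 21 days after application, 0 (untreated) to 100 (complete kill) %.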

Row | SMILES | Growth controlling degree (%) Barnyardgrass [1] [%] | Growth controlling degree (%) Crabgrass [2] [%] | Growth controlling degree (%) Green foxtail [3] [%] | Growth controlling degree (%) Redroot pigweed [4] [%] | Growth controlling degree (%) Prickly sida [5] [%] | Growth controlling degree (%) Velvetleaf [6] [%] | Growth controlling degree (%) Rice [7] [%] | Growth controlling degree (%) Corn [8] [%] | Growth controlling degree (%) Soybean [9] [%] | Growth controlling degree (%) Barnyardgrass [10] [%] | Growth controlling degree (%) Crabgrass [11] [%] | Growth controlling degree (%) Green foxtail [12] [%] | Growth controlling degree (%) Redroot pigweed [13] [%] | Growth controlling degree (%) Prickly sida [14] [%] | Growth controlling degree (%) Velvetleaf [15] [%] | Growth controlling degree (%) Rice [16] [%] | Growth controlling degree (%) Corn [17] [%] | Growth controlling degree (%) Soyabean [18] [%] | Growth controlling degree (%) Barnyardgrass ([19]; active ingredient 125 g/ha) [%] | Growth controlling degree (%) Japanese bulrush ([20]; active ingredient 125 g/ha) [%] | also measured
1 | CC(C)C(c1cnccc1Cl)N(C)C(=O)Cc1ccc(C(F)(F)F)cc1 (stereo not drawn) [I-69] | 10 | 90 | 30 | 70 | 80 | 95 | 10 | 60 | 60 | 95 | 98 | 85 | 50 | 80 | 20 | 10 | 20 | 40 | 95 | 70 | Growth controlling degree (%) Japanese ribbon wapato ([21]; active ingredient 125 g/ha): 40%; Growth controlling degree (%) Rice ([22]; active ingredient 125 g/ha): 0%
2 | CC(C)C(c1cnccc1Cl)N(C)C(=O)Cc1c(F)cccc1F (stereo not drawn) [I-70] | 40 | 80 | 60 | 50 | 80 | 80 | 20 | 50 | 30 | 80 | 98 | 70 | 70 | 50 | 0 | 40 | 0 | 0 | 80 | 70 | Growth controlling degree (%) Japanese ribbon wapato ([21]; active ingredient 125 g/ha): 40%; Growth controlling degree (%) Rice ([22]; active ingredient 125 g/ha): 10%
3 | CC(C)C(c1cnccc1C(F)(F)F)N(C)C(=O)Cc1ccc(F)c(C(F)(F)F)c1 (stereo not drawn) [I-61] | 30 | 80 | 90 | 70 | 80 | 80 | 30 | 30 | 70 | 20 | 80 | 70 | 70 | 98 | 60 | 10 | 10 | 20 |  |  | Growth controlling degree (%) Barnyardgrass ([19]; active ingredient 250 g/ha): 95%; Growth controlling degree (%) Japanese bulrush ([20]; active ingredient 250 g/ha): 0%; Growth controlling degree (%) Japanese ribbon wapato ([21]; active ingredient 250 g/ha): 20%; Growth controlling degree (%) Rice ([22]; active ingredient 250 g/ha): 10%
